Earlier results, collected in publication PMC5427847, “Epilepsy-associated GRIN2A mutations reduce NMDA receptor trafficking and agonist potency – molecular profiling and functional rescue” (Scientific Reports, 2017).

Experiments:
[1] = tested on: GluN2A K484 to aspartic acid; settings: K484 to aspartic acid versus wild type
[2] = tested on: GluN1 D732 mutated to alanine, co-expressed with GluN2A; settings: receptor remaining on the cell surface
D732A-GluN1 = settings: competitive glycine site antagonist

NCC(=O)O [Glycine, glycine]
Effect on glycine binding [1]: no measurable effect | Reduction in glycine potency [2]: 4000 fold

O=C(O)c1cc(=O)c2c(Cl)cc(Cl)cc2[nH]1 [DCKA]
Rescue of mutant receptors trapped within the ER (D732A-GluN1): has been achieved

N[C@@H](CCC(=O)O)C(=O)O [Glutamate, glutamate]
Reduction of glutamate affinity [1]: 6 fold
